Measured values reported in US11299509B2, “Trigger-activatable sugar conjugates for cancer-selective labeling and targeting” (The Board of Trustees of the University of Illinois, priority 2017, dated 2022).

How the values were obtained:
[1] = system: MDA-MB-231 (triple negative breast cancer) cells; assay: Metabolic azido-sugar cell labeling, DBCO-Cy5 detection by flow cytometry; type: cell-based; conditions: 50 μM sugar, 72 h, DBCO-Cy5 25 μM, no UV
Description: (§1) These cells were incubated with Ac4GalNAz (AAG), Ac3GalNAzEt (AAG-Et), and PBS respectively for three days.
(§2) It is known that galactosamine can be preferentially taken up by hepatocytes (a type of liver cells) due to the presence of cell receptors such as asialoglycoprotein receptor (ASGPR). Tetraacetyl-N-azidoacetylgalactosamine (AAG) is relative hydrophobic and can passively diffuse into cells through hydrophobic interactions with the lipid cell membrane while N-azidoacetylgalactosamine (AG) is too hydrophilic to penetrate the lipid barrier by passive diffusion. Therefore, AG can only be taken up by cells through receptor-mediated endocytosis.
(§3) Cells were seeded onto coverslips in a 6-well plate at a cell density of 40 k/well. AAG or AAG derivatives were added and incubated with cells for 72 h. […] The opti-MEM was then removed and cells were washed with PBS three times. Cells were lifted by incubating with trypsin solution (100 μL) at 37° C. for 5 min and transferred to test tubes with addition of 4% PFA solution (0.4 mL). Ten thousand cells per sample were analyzed by flow cytometry and data analysis was performed on the FCS Express software.
(§4) AAG-Nb with a final concentration of 50 μM was added. UV light (10 mW/m^2) was applied for 15 min at the start of incubation, and the cells were further incubated for 72 h. Cells without UV irradiation were continuously incubated for 72 h. Cell samples for flow cytometry were then prepared following the above-mentioned procedures.

Jurkat (lymphoma) cells = assay: as above; type: cell-based; conditions: 50 μM sugar, 72 h, DBCO-Cy5 25 μM, no UV
Description: as §1, §2, §3, §4

[2] = system: HepG2 (liver cancer) cells; assay: as above; type: cell-based; conditions: for Cell labeling (Cy5 fluorescence on the cell surface): 50 μM sugar, 72 h, DBCO-Cy5 25 μM, no UV
Description: as §1, §2, §3, §4

HepG2 liver cancer cells [3] = assay: SDS-PAGE analysis of cells treated with azido-sugars; type: cell-based; conditions: 72 h, DBCO-Cy5 25 μM
Description: HepG2 liver cancer cells were seeded onto 6-well plate at a cell density of 40 k/well. Different azido-sugars at different concentrations were added and incubated with cells for 72 h. After removal of medium and multiple washing steps, DBCO-Cy5 (25 μM) in opti-MEM was added and incubated with cells at 37° C. for 1 h. The opti-MEM was then removed and cells were washed with PBS three times. The cells were homogenized in 150 μL of lysis buffer (RIPA) containing protease inhibitor. The lysate was incubated at 4° C. for 30 min, followed by centrifugation at 5000 rcf for 5 min to remove insoluble debris. The total concentration of soluble protein in each sample was determined by bicinchoninic acid (BCA) assay and adjusted to the same concentration. 4× loading buffer was added to each sample and 15 μL samples containing 20 μg protein were loaded onto 10% SDS-PAGE gel after heating at 95° C. The gel was run for 60 min under 150 V. Cy-5 fluorescence was imaged by Imagequant LAS 4010 Luminescent image analyzer and the gel was further stained by coomassie blue

HepG2 liver cancer cells [4] = assay: MTT cell viability assay of azido-sugars; type: cell-based; conditions: up to 200 μM, 72 h
Description: HepG2 liver cancer cells were seeded onto coverslips in a 6-well plate at a cell density of 40 k/well. Different azido-sugars (AG, AAG, and AAM) at different concentrations (50 μM-200 μM) were added, and the cells were incubated at 37° C. for 72 h. The medium was removed. Then 20 μL 3-(4,5-dimethyl-2-thiazolyl)-2,5-diphenyl-2H-tetrazolium bromide (MTT) (5 mg/mL in PBS) was added and cultured at 37° C. for 4 h. MTT is a substrate that provides a colorimetric signal in response to viable mitochondria. Following solubilization by 100 μl DMSO, absorbance at 570 nm was measured using a plate reader.

HepG2 liver cancer cells [5] = assay: Confocal imaging of azido-sugar labeled cells; type: cell-based; conditions: DBCO-Cy5 stain
Description: Cells were seeded onto coverslips in a 6-well plate at a cell density of 40 k/well. Ac4GalNAz (AAG) or AAG derivatives were added with a final concentration of 50 μM and the cells were incubated at 37° C. for 72 h. The medium was removed and washed with PBS for three times. DBCO-Cy5 (25 μM) in Opti-MEM was then added and the cells were incubated for another 1 h. Then the medium was removed, and the cells were washed with PBS three times. 4% paraformaldehyde (PFA) solution was added to fix the cells for 10 min, followed by staining of cell nucleus with Hoechst (1 μg/mL) and staining of cell membrane with cell mask orange (5 ug/mL) for 10 min. The coverslips were mounted on microscope slides with the addition of ProLong Gold antifade reagent, and the prepared sample was stored in dark for imaging.

CD-1 mice = assay: Maximum tolerable dose (MTD) after i.v. injection; conditions: for Maximum tolerable dose (MTD): single i.v. injection, <20% body weight loss
Description: (§5) The maximum tolerable dose (MTD) of the two conjugates were also evaluated in CD-1 mice (FIG. 9). […] The sulfo-DBCO-TEG-VC-DOX was injected using PBS with only one time administration.
(§6) The maximum tolerable dose (MTD) of the two conjugates were also evaluated in mice (FIG. 15).
(§7) A model DBCO-paclitaxel conjugate, PTX-TEG-DBCO was prepared through well-established reactions.

[6] = Maximum tolerable dose (MTD) after i.v. injection; conditions: CD-1, mouse, in vivo
Description: as §5, §6, §7

physchem = assay: physchem
Description: Two DBCO-doxorubicin conjugates were synthesized with a cathepsin-B responsive peptide linker (VC). A tetraethyleneglycol unit was incorporated to improve the solubility of the conjugates (FIG. 7). A sulfonic acid-containing conjugate, sulfo-DBCO-TEG-VC-DOX was also prepared to further improve the solubility of the conjugate. […] The solubility of the two conjugates were first tested.
DBCO-DM1 conjugates (FIG. 11) were then synthesized through well-established chemistries. A polyethylene glycol 5000 was used in the design to serve the following purpose: 1. […] To increase the hydrophilicity of the drug conjugate such that its passive uptake in non-azide labeled cells can be reduced; 3. To increase the blood circulation half-time (pharmacokinetics) of the molecule in vivo.

[7] = system: MDA-MB-231 breast cancer cell; assay: MTT assay to evaluate in vitro cytotoxicity; type: cell-based; conditions: 72 hours
Description: Standard MTT protocol was followed to evaluate the cytotoxicity of DBCO-drug conjugate. Briefly, MDA-MB-231 cells were seeded in 96-well plate at 3000 cells/well in 100 μL DMEM medium and were allowed to attach overnight. 10 μL DBCO-drug conjugate solution was added into the well to the designated final concentration and incubated at 37° C. for 72 hours. PBS was taken as 100% control. 20 μL 5 mg/mL MTT solution was added to the medium and incubated at 37° C. for 3 hours.

[8] = system: a variety of breast cancer cell lines; conditions: down to; cited from earlier work

CC(=O)OC[C@H]1OC(OC(C)=O)[C@H](NC(=O)CN=[N+]=[N-])[C@@H](OC(C)=O)[C@H]1OC(C)=O (stereo partly shown) [AAG, Tetraacetyl-N-azidoacetylgalactosamine]
Cell labeling (Cy5 fluorescence on the cell surface) [1]: efficiently labeled | Cell labeling (Cy5 fluorescence on the cell surface) (Jurkat (lymphoma) cells): efficiently labeled | Cell labeling (Cy5 fluorescence on the cell surface) [2]: efficiently labeled

CC(=O)OC[C@H]1OC(OC(C)=O)[C@@H](NC(=O)CN=[N+]=[N-])[C@@H](OC(C)=O)[C@@H]1OC(C)=O (stereo partly shown) [AAM, tetraacetyl-N-azidoacetylmannosamine]
Cell labeling (Cy5 fluorescence on the cell surface) [1]: efficiently labeled | Cell labeling (Cy5 fluorescence on the cell surface) (Jurkat (lymphoma) cells): efficiently labeled | Cell labeling (Cy5 fluorescence on the cell surface) [2]: efficiently labeled

[N-]=[N+]=NCC(=O)N[C@H]1C(O)O[C@H](CO)[C@H](O)[C@@H]1O (stereo partly shown) [AG, N-azidoacetylgalactosamine]
Azide groups on cell surface membrane protein (SDS-PAGE, Cy5 fluorescence) (HepG2 liver cancer cells [3]): did containing azide groups | Cell labeling (Cy5 fluorescence on the cell surface) [1]: only HepG2 cells were positively labeled | Cell labeling (Cy5 fluorescence on the cell surface) (Jurkat (lymphoma) cells): only HepG2 cells were positively labeled | Cell labeling (Cy5 fluorescence on the cell surface) [2]: positively labeled | Concentration dependence of labeling ([2]; concentration increased from 25 μM to 200 μM): increased significantly | Toxicity to cells (MTT) (HepG2 liver cancer cells [4]): not toxic | Localization of labeling (confocal microscopy) (HepG2 liver cancer cells [5]): mainly localized on cell membrane

COc1cccc2c1C(=O)c1c(O)c3c(c(O)c1C2=O)C[C@@](O)(C(=O)CO)C[C@@H]3O[C@H]1C[C@H](NC(=O)OCc2ccc(NC(=O)C(CCCNC(N)=O)NC(=O)[C@@H](NC(=O)CCOCCOCCOCCOCCNC(=O)CCC(=O)N3Cc4ccccc4C#Cc4ccccc43)C(C)C)cc2)[C@H](O)[C@H](C)O1 (stereo partly shown) [DBCO-TEG-VC-DOX]
Body weight change (CD-1 mice; mouse, in vivo): No significant body weight loss | MTD [6]: > 204 mg/kg | solubility (physchem; aqueous buffer): < 50 µM | solubility (physchem; aqueous with cosolvent or surfactant or cyclodextrin): ~3500 µg/mL

COc1cc2cc(c1Cl)N(C)C(=O)C[C@H](OC(=O)[C@H](C)N(C)C(=O)CCS)[C@]1(C)O[C@H]1[C@H](C)[C@@H]1C[C@@](O)(NC(=O)O1)[C@H](OC)/C=C/C=C(\C)C2 [DM1, Mertansine]
IC50 [7]: ~0.03 nM | in vitro IC50 value [8]: tens

CC(=O)O[C@H]1C(=O)[C@@]2(C)C([C@H](OC(=O)c3ccccc3)[C@]3(O)C[C@H](OC(=O)[C@H](OC(=O)COCCOCCOCCOCCNC(=O)CCC(=O)N4Cc5ccccc5C#Cc5ccccc54)[C@@H](NC(=O)c4ccccc4)c4ccccc4)C(C)=C1C3(C)C)[C@]1(OC(C)=O)CO[C@@H]1C[C@@H]2O (stereo partly shown) [PTX-TEG-DBCO]
MTD ([6]; iv): > 200 mg/kg

N.N.[Cl][Pt][Cl] [cisplatin, reference compound]
Maximum tolerable dose (MTD) (CD-1 mice; CD-1 mice): about 5 mg/kg | Maximum tolerable dose (MTD) (CD-1 mice; CD-1 mice, listed as cis-platin): 5 mg/kg

COc1cccc2c1C(=O)c1c(O)c3c(c(O)c1C2=O)C[C@@](O)(C(=O)CO)C[C@@H]3O[C@H]1C[C@H](NC(=O)OCc2ccc(NC(=O)C(CCCNC(N)=O)NC(=O)[C@@H](NC(=O)CCC(=O)NCCOCCOCCOCCOCCC(=O)NCC(C(=O)NCCC(=O)N3Cc4ccccc4C#Cc4ccccc43)S(=O)(=O)O)C(C)C)cc2)[C@H](O)[C@H](C)O1 (stereo partly shown) [sulfo-DBCO-TEG-VC-DOX]
Body weight change (CD-1 mice; CD-1 mice, one time administration in PBS, up to highest dose used): No body weight decrease | MTD ([6]; iv): > 120 mg/kg | solubility (physchem; aqueous buffer): 8000 to 10000 µg/mL
